{"source": "patent US20230415137A1", "about": "“PHOTOCATALYST COMPOSITION, PHOTOCATALYST COMPOSITION SOLUTION, PHOTOCATALYST MEMBER, METHOD FOR USING PHOTOCATALYST COMPOSITION, AND SPACE DISINFECTION METHOD” (priority 2020, published 2023)", "test_system": "indigenous bacteria collected from the ultrasonic humidifier", "test": "Bactericidal evaluation (photocatalyst composition solutions, first example group)", "type": "cell-based", "conditions": "riboflavin sodium phosphate set to 10,000 ppm, no sacrificial agent", "protocol": "The indigenous bacteria collected from the ultrasonic humidifier is adjusted to a predetermined concentration, then was added to an autoclave-sterilized normal bouillon medium (Eiken (register trade mark), manufactured by Eiken Chemical Co., Ltd.). Shaking culture for 24 hours was performed in a shaking incubator at 30° C. and 120 rpm. The solution when the number of bacteria reached about 1.5×10^9 CFU/ml was used as an inoculum solution.\nSeparately, the photocatalyst composition solutions obtained in the above Examples and Comparative Examples were also autoclave sterilized.\nThe inoculum solution was diluted with each of the photocatalyst composition solutions of the above Examples and Comparative Examples to prepare a solution having the number of bacteria of 1.5×10^7 CFU/ml, which was used as a test solution.\nTwo similar samples for each example and comparative example were prepared and stored under the following two conditions. The number of bacteria was measured using “Sani-Check BF” (manufactured by Biosan Laboratories, Inc.) and evaluation was performed according to the following evaluation criteria. […]", "data": [{"smiles": "Cc1cc2nc3c(=O)[nH]c(=O)nc-3n(C[C@H](O)[C@H](O)[C@H](O)COP(=O)(O)O)c2cc1C", "note": "[riboflavin sodium phosphate]", "values": [{"measurement": "bactericidal effect as worded in the text", "result": "a certain degree of bactericidal effect"}]}]}
